Columns and labels:
Tel-cKit/T670I-BaF3 = assay: Proliferation of Tel-cKit/T670I-BaF3 cells, CCK8 cell viability assay; assay type: cell-based; details: Mus musculus, 72 hours, stably expressing cKIT/T670I
Description: (§1) In this example the following cells were used: […] (purchased from ATCC), mouse P210-BaF3 (stably expressing BCR-ABL mutant activated kinase), mouse P210/T315I-BaF3 (stably expressing BCR-ABL/T315I mutant activated kinase), mouse FLT3-ITD-BaF3 (stably expressing FLT3/ITD mutant activated kinase), mouse TEL-FLT3-BaF3 (stably expressing FLT3 kinase), mouse TEL-cKIT-BaF3 (stably expressing cKIT kinase), mouse BaF3-tel/T670I-cKit (stably expressing cKIT/T670I mutant activated kinase), mouse Tel-VEGFR2-BaF3 (stably expressing VEGFR2 kinase), mouse Tel-PDGFRα-BaF3 (stably expressing PDGFRα kinase), mouse Tel-PDGFRβ-BaF3 (stably expressing PDGFRβ kinase), mouse Tel-RET-BaF3 (stably expressing RET kinase). The above cell lines were all constructed by our laboratory according to the following method: the kinase region sequences of human P210, P210/T315I, FLT3/ITD, FLT3, cKIT, cKIT/T670I, VEGFR2, PDGFRα, PDGFRβ, RET were respectively amplified by PCR, and inserted into MSCV-Puro vectors having N-terminal TEL or TPR fragments (Clontech). The vectors were stably transfected into mouse BaF3 cells by means of retrovirus, and the growth factor IL-3 were removed, eventually obtaining cell lines that depend on transferred protein P210, P210/T315I, FLT3/ITD, FLT3, cKIT, cKIT/T670I, VEGFR2, PDGFRα, PDGFRβ, or RET.
(§2) GI50 (unit: μM) was calculated by quantifying the number of living cells based on quantitative measurement of reductive dehydrogenase in living cells with CCK8 cell viability assay kit (Bestbio, China).

Tel-cKit-BaF3 = assay: Proliferation of Tel-cKit-BaF3 cells, CCK8 cell viability assay; assay type: cell-based, mouse; details: Mus musculus; 72 hours, CCK8; stably expressing cKIT kinase
Description: as §1, §2

BaF3 = assay: Proliferation of BaF3 cells, CCK8 cell viability assay; assay type: cell-based; details: Mus musculus, 72 hours
Description: as §1, §2

Tel-FLT3-BaF3 = assay: Proliferation of Tel-FLT3-BaF3 cells, CCK8 cell viability assay; assay type: cell-based; details: Mus musculus, 72 hours, stably expressing FLT3 kinase
Description: as §1, §2

TEL-PDGFRα-BaF3 = assay: Proliferation of TEL-PDGFRα-BaF3 cells, CCK8 cell viability assay; assay type: cell-based; details: Mus musculus, 72 hours, stably expressing PDGFRα kinase
Description: as §1, §2

P210/T315I-BaF3 = assay: Proliferation of P210/T315I-BaF3 cells, CCK8 cell viability assay; assay type: cell-based; details: Mus musculus, 72 hours, stably expressing BCR-ABL/T315I
Description: as §1, §2

FLT3-ITD-BaF3 = assay: Proliferation of FLT3-ITD-BaF3 cells, CCK8 cell viability assay; assay type: cell-based; details: Mus musculus, 72 hours, stably expressing FLT3/ITD
Description: as §1, §2

P210-BaF3 = assay: Proliferation of P210-BaF3 cells, CCK8 cell viability assay; assay type: cell-based; details: Mus musculus, 72 hours, stably expressing BCR-ABL mutant activated kinase
Description: as §1, §2

TEL-PDGFRβ-BaF3 = assay: Proliferation of TEL-PDGFRβ-BaF3 cells, CCK8 cell viability assay; assay type: cell-based; details: Mus musculus, 72 hours, stably expressing PDGFRβ kinase
Description: as §1, §2

TEL-VEGFR2-BaF3 = assay: Proliferation of TEL-VEGFR2-BaF3 cells, CCK8 cell viability assay; assay type: cell-based; details: Mus musculus, 72 hours, stably expressing VEGFR2 kinase
Description: as §1, §2

Structure (SMILES) | GI50 (Tel-cKit/T670I-BaF3) | GI50 (Tel-cKit-BaF3) | GI50 (BaF3) | GI50 (Tel-FLT3-BaF3) | GI50 (TEL-PDGFRα-BaF3) | GI50 (P210/T315I-BaF3) | GI50 (FLT3-ITD-BaF3) | GI50 (P210-BaF3) | GI50 (TEL-PDGFRβ-BaF3) | GI50 (TEL-VEGFR2-BaF3)
CC(=O)Nc1cc(Oc2ccc(CC(=O)Nc3ccc(C)cc3C(F)(F)F)cc2)ncn1 [Example 38, 2-[4-(6-acetylamino-pyrimidin-4-yloxy)-phenyl]-N-(4-methyl-2-trifluoromethyl-phenyl)-acetamide] | 8.31 µM | > 10 µM | > 10 µM | 0.632 µM | 0.035 µM | – | 0.213 µM | > 10 µM | 0.466 µM | 2.85 µM
CC(=O)Nc1cc(Oc2ccc(CC(=O)Nc3cccc(Cl)c3C(F)(F)F)cc2)ncn1 [Example 35, 2-[4-(6-acetylamino-pyrimidin-4-yloxy)-phenyl]-N-(3-chloro-2-trifluoromethyl-phenyl)-acetamide] | 6.6 µM | > 10 µM | > 10 µM | 0.925 µM | 0.203 µM | – | 0.067 µM | > 10 µM | 0.406 µM | –
CC(=O)Nc1cc(Oc2ccc(CC(=O)Nc3ccc(C(F)(F)F)cc3)cc2)ncn1 [Example 36, 2-[4-(6-acetylamino-pyrimidin-4-yloxy)-phenyl]-N-(4-trifluoromethyl-phenyl)-acetamide] | 0.036 µM | 0.589 µM | > 10 µM | 0.017 µM | < 0.001 µM | – | 0.004 µM | – | 0.002 µM | –
Cc1ccc(NC(=O)Nc2ccc(Oc3cc(N(C)CCO)ncn3)cc2)cc1C(F)(F)F [Example 87, 1-(4-{6-[(2-hydroxy-ethyl)-methyl-amino]-pyrimidin-4-yloxy}-phenyl)-3-(4-methyl-3-trifluoromethyl-phenyl)-urea] | 8.85 µM | 0.354 µM | 7.21 µM | 0.169 µM | 0.026 µM | 8.49 µM | 0.058 µM | – | 0.115 µM | 0.398 µM
CC(=O)Nc1cc(Oc2ccc(CC(=O)Nc3cccc(C(F)(F)F)c3)cc2)ncn1 [Example 33, 2-[4-(6-acetylamino-pyrimidin-4-yloxy)-phenyl]-N-(3-trifluoromethyl-phenyl)-acetamide] | 0.081 µM | 0.301 µM | > 10 µM | 0.004 µM | 0.001 µM | – | 0.01 µM | – | 0.004 µM | 0.013 µM
CC(=O)Nc1cc(Oc2ccc(CC(=O)N(C)c3ccc(Br)cc3)cc2)ncn1 [Example 39, 2-[4-(6-acetylamino-pyrimidin-4-yloxy)-phenyl]-N-(4-bromo-phenyl)-N-methyl-acetamide] | > 10 µM | 7.88 µM | > 10 µM | 0.347 µM | 0.057 µM | – | 0.18 µM | > 10 µM | 0.134 µM | 4.26 µM
CC(=O)Nc1cc(Oc2ccc(NC(=O)Cc3cc(Cl)ccc3C(F)(F)F)cc2)ncn1 [Example 2, N-[4-(6-acetylamino-pyrimidin-4-yloxy)-phenyl]-2-(5-chloro-2-trifluoromethyl-phenyl)-acetamide] | > 10 µM | 6.93 µM | > 10 µM | 0.744 µM | 0.102 µM | – | 0.158 µM | – | 0.156 µM | 2.83 µM
CC(=O)Nc1cc(Oc2ccc(CC(=O)Nc3ccccc3)cc2)ncn1 [Example 37, 2-[4-(6-acetylamino-pyrimidin-4-yloxy)-phenyl]-N-phenyl-acetamide] | 4.03 µM | > 10 µM | > 10 µM | 2.27 µM | 0.005 µM | – | 0.162 µM | > 10 µM | 0.004 µM | –

More lines, now with the values ahead:

GI50 (Tel-cKit/T670I-BaF3) | GI50 (Tel-cKit-BaF3) | GI50 (BaF3) | GI50 (Tel-FLT3-BaF3) | GI50 (TEL-PDGFRα-BaF3) | GI50 (P210/T315I-BaF3) | GI50 (FLT3-ITD-BaF3) | GI50 (P210-BaF3) | GI50 (TEL-PDGFRβ-BaF3) | GI50 (TEL-VEGFR2-BaF3) | Structure (SMILES)
3.27 µM | 0.924 µM | > 10 µM | 0.025 µM | 0.005 µM | 9.07 µM | 0.011 µM | > 10 µM | 0.014 µM | – | CC(=O)Nc1cc(Oc2ccc(NC(=O)Cc3cccc4ccccc34)cc2)ncn1 [Example 163, N-[4-(6-acetylamino-pyrimidin-4-yloxy)-phenyl]-2-naphth-1-yl-acetamide]
7.94 µM | 9.84 µM | > 10 µM | 0.513 µM | 0.041 µM | > 10 µM | 0.126 µM | > 10 µM | 0.112 µM | – | CCCC(=O)Nc1cc(Oc2ccc(NC(=O)Cc3ccccc3C(F)(F)F)cc2)ncn1 [Example 167, N-(6-{4-[2-(2-trifluoromethyl-phenyl)-acetylamino]-phenoxy}-pyrimidin-4-yl)-butyramide]
> 10 µM | > 10 µM | > 10 µM | 1.41 µM | 0.084 µM | > 10 µM | 0.444 µM | > 10 µM | 0.938 µM | – | CC(=O)Nc1cc(Nc2ccc(NC(=O)Cc3ccccc3C(F)(F)F)cc2)ncn1 [Example 164, N-[4-(6-acetylamino-pyrimidin-4-ylamino)-phenyl]-2-(2-trifluoromethyl-phenyl)-acetamide]
> 10 µM | > 10 µM | > 10 µM | 3.16 µM | 0.137 µM | > 10 µM | 1.22 µM | > 10 µM | 0.925 µM | – | CC(=O)Nc1cc(Oc2ccc(NC(=O)C(C)c3ccc(C)cc3)cc2)ncn1 (centres unmarked) [Example 170, N-[4-(6-acetylamino-pyrimidin-4-yloxy)-phenyl]-2-(4-methyl-phenyl)-propanamide]
> 10 µM | 1.7 µM | > 10 µM | 0.105 µM | 0.005 µM | > 10 µM | 0.024 µM | > 10 µM | 0.035 µM | – | CC(=O)Nc1cc(Oc2ccc(NC(=O)Cc3cccc(Cl)c3)cc2)ncn1 [Example 169, N-[4-(6-acetylamino-pyrimidin-4-yloxy)-phenyl]-2-(3-chloro-phenyl)-acetamide]
0.99 µM | 1.73 µM | 8.92 µM | 0.46 µM | 0.021 µM | – | 0.3 µM | – | 0.136 µM | 0.35 µM | Cc1ccc(NC(=O)Nc2ccc(Oc3cc(N4CCN[C@H](C)C4)ncn3)cc2)cc1C(F)(F)F [Example 106, (R)-1-(4-methyl-3-(trifluoromethyl)phenyl)-3-(4-((6-(3-methylpiperazin-1-yl)pyrimidin-4-yl)oxy)phenyl)urea]

— patent US11602534B2, “Pyrimidine derivative kinase inhibitors” (HEFEI INSTITUTES OF PHYSICAL SCIENCE, CHINESE ACADEMY OF …, priority 2017, dated 2023)
